What was measured:
Assay type in all cases: cell-based
THP1-Dual KO-TREX1 cells = test: THP1 TREX1 KO inhibition assay (type 1 interferon response); settings: Homo sapiens, 144 h, type 1 interferon (QUANTI-LUC), 1 μM 5-aza-2′-deoxycytidine, six days
Procedure: Exemplary compounds were tested for their ability to alter the type 1 interferon response in THP1 Dual TREX1 KG cells treated with 5-aza-2′-deoxycytidine. Assay procedures and results are described below.
THP1 Dual TREX1 KG cells were purchased from Invivogen. The THP1-Dual™ KO-TREX1 cells were cultured in RPMI 1640, 10% heat-inactivated fetal bovine serum, 25 mM HEPES, 10 μg/mL blasticidin, and 100 μg/mL zeocin. THP1-Dual™ KO-TREX1 cells were treated with a dose titration of a test compound alone or in the presence of 1 μM 5-aza-2′-deoxycytidine (Sigma-Aldrich, cat #189825). Type 1 Interferon and cell viability were assessed after six days of treatment.
Stock solution of the test compound was prepared in DMSO followed by a three-fold dilution in DMSO. Additional 50× dilution was prepared in cell culture media for each dilution. 10 μL of diluted test compound was then added to a 96-well plate.
THP1-Dual™ KO-TREX1 cells were treated with either 1×PBS or 1 μM 5-aza-2′-deoxycytidine. […] of the THP1-Dual™ KO-TREX1 cells from either treatment were added to each well of the 96-well plate containing the test compound titration at 50,000 cells/well. Cells were incubated at 37° C., 5% CO2 in a humidified incubator for six days. Cells treated with 1 μM 5-aza-2′-deoxycytidine were added at the same density as above and incubated at 37° C., 5% CO2 in a humidified incubator for six days. On day six, 25 μL of cell supernatant was transferred to a 96-well white-walled plate, followed by addition to each well of 50 μL of QUANTI-LUC solution containing stabilizer. Luminescence was detected on a plate reader according to the manufacturer's instructions.
The remaining cells were assessed for cell viability by adding 25 μL of CellTiter-Glo (Promega, G9683) solution to each well, and being placed on a shaker for 10 minutes at room temperature. Luminescence was detected on a plate reader, according to the manufacturer's instructions.
In the tables “A” represents values≤0.050 μM; “B” represents values from >0.050 μM to ≤0.100 μM; “C” represents values from >0.100 μM to ≤0.250 μM; “D” represents values from >0.250 μM to ≤1 μM; “E” represents values>1 μM; and “NT”=not tested: […]

[1] = Mitochondria toxicity assay with PC3 cells, in-cell ELISA COX-1; settings: 5 days treatment
Procedure: (§1) Exemplary compounds were tested for inhibition of expression of mitochondria DNA encoded proteins COX-1 […]. SDH-A (succinate dehydrogenase-A) is a control mitochondria protein encoded by nuclear DNA. Reduction in COX-1 expression indicates off target inhibition of mitochondria DNA synthesis which leads to mitochondrial toxicity. Assay procedures and results are described below.
(§2) PC3 cells were purchased from ATCC and cultured in F-12 Kaighn's modified medium (Hyclone), 10% heat-inactivated fetal bovine serum (Invitrogen), 1% Penicillin-Streptomycin (Invitrogen). PC3 cells were treated with a dose titration of a test compound on 96 well plates for 5 days at 37° C., 5% CO2 in a humidified incubator. The treatment plates are duplicated, one for in-cell ELISA for mitochondria proteins and one for cytotoxicity.
(§3) In-cell ELISA was performed to measure mitochondrial proteins using MitoBiogenesis In-Cell ELISA kit (Abcam) per manufacturer's instruction. The medium was aspirated from the compound treated cells, 100 μl per well of 4% paraformaldehyde (Solarbio) was added and cells were incubated at room temperature for 20 minutes. The cells were washed three times with PBS. 100 μl of 0.5% acetic acid was added per cell, and the cells were incubate at room temperature for 5 minutes. Cells were washed once with PBS. 100 μl per well of Permeabilization Buffer was added, and the cells incubate at room temperature for 30 minutes. The permeabilization buffer was removed and 200 μl per well 2× Blocking Buffer was added and the cells were incubated at room temperature for 2 hours. After removing the Blocking Buffer 100 μl per well of primary antibody to SDH-A or COX-1 was added, and the cells were incubated at 4° C. overnight. The primary antibody solution was removed and cells were washed 3 times with the Wash Buffer. 100 μl per well of AP- and HRP-labelled secondary antibodies was added, and the cells were incubated at room temperature for 1 hour. The cells were then washed 4 times with the Wash Buffer. For SDH-A detection, 100 μl per well AP Development Solution was added, and the cells were incubated at room temperature for 10 minutes. Cells were then read on CLARTO star^plus microplate reader (BMG Labtech) for kinetic readings at 405 nm for 5 minutes. […] The cells were then read on CLARTO star^plus microplate reader (BMG Labtech) for kinetic readings at 600 nm for 15 minutes.
(§4) In the table “A” represents values<1.0 μM; “B” represents values from >1.0 μM to ≤10.0 μM; “C” represents values from >10.0 μM to ≤50.0 μM; “D” represents values from >50.0 μM to ≤100.0 μM; and “E” represents values>100.0 μM.

PC3 cells = test: Mitochondria toxicity assay with PC3 cells, cytotoxicity (Cell Titer Glo); settings: Homo sapiens, PC-3, 120 h, 5 days treatment
Procedure: as §2
For the cytotoxicity assay, the medium from the cell viability plate was removed, 50 μL per well of Cell Titer Glo (Promega, G9683) was added. Then the cells incubated for 30 minutes at room temperature. Luminescence was read by Envision (PerkinElmer 2105).
as §4

[2] = system: SDH-A (succinate dehydrogenase-A); test: Mitochondria toxicity assay with PC3 cells, in-cell ELISA SDH-A; settings: 5 days treatment
Procedure: as §1, §2, §3, §4

SMILES	IC50 (THP1-Dual KO-TREX1 cells)	IC50 [1]	IC50 (PC3 cells)	IC50 [2]
Cc1cn([C@@H]2O[C@@](CO)(CCl)[C@@H](O)[C@H]2F)c(=O)[nH]c1=O [Compound 9, 1-((2R,3R,4R,5R)-5-(chloromethyl)-3-fluoro-4-hydroxy-5-(hydroxymethyl)tetrahydrofuran-2-yl)-5-methylpyrimidine-2,4(1H,3H)-dione]	> 1000 nM	> 100000 nM	> 100000 nM	> 100000 nM
C=C[C@]1(CO)O[C@@H](n2ccc(N)nc2=O)C[C@@H]1O [Compound 43, 4-amino-1-((2R,4S,5R)-4-hydroxy-5-(hydroxymethyl)-5-vinyltetrahydrofuran-2-yl)pyrimidin-2(1H)-one]	> 1000 nM	1000 to 10000 nM	> 100000 nM	1000 to 10000 nM
C#C[C@]1(CO)O[C@@H](n2ccc(=O)[nH]c2=O)[C@H](F)[C@@H]1O [Compound 33, 1-((2R,3R,4R,5R)-5-ethynyl-3-fluoro-4-hydroxy-5-(hydroxymethyl)tetrahydro-furan-2-yl)pyrimidine-2,4(1H,3H)-dione]	> 1000 nM	–	–	–
C#C[C@]1(CO)O[C@@H](n2ccc(N)nc2=O)C[C@@H]1O [Compound 41, 4-amino-1-((2R,4S,5R)-5-ethynyl-4-hydroxy-5-(hydroxymethyl)tetrahydro-furan-2-yl)pyrimidin-2(1H)-one]	> 1000 nM	–	–	–
Nc1cnn([C@H]2C[C@H](O)[C@](CO)(CCl)O2)c(=O)n1 [Compound 18, 5-amino-2-((2R,4S,5R)-5-(chloromethyl)-4-hydroxy-5-(hydroxymethyl)tetrahydrofuran-2-yl)-1,2,4-triazin-3(2H)-one]	> 1000 nM	–	–	–
O=c1ccn([C@@H]2O[C@@](CO)(CCl)[C@@H](O)[C@H]2F)c(=O)[nH]1 [Compound 29, 1-((2R,3R,4R,5R)-5-(chloromethyl)-3-fluoro-4-hydroxy-5-(hydroxymethyl)tetrahydrofuran-2-yl)pyrimidine-2,4(1H,3H)-dione]	> 1000 nM	–	–	–
O=c1ccn([C@H]2C[C@H](O)[C@](CO)(CCl)O2)c(=O)[nH]1 [Compound 34, 1-((2R,4S,5R)-5-(chloromethyl)-4-hydroxy-5-(hydroxymethyl)tetrahydro-furan-2-yl)pyrimidine-2,4(1H,3H)-dione]	> 1000 nM	–	–	–
C#C[C@@H]1[C@H](n2ccc(N)nc2=O)O[C@](C)(CO)[C@H]1O [Compound 20, 4-amino-1-((2R,3S,4S,5R)-3-ethynyl-4-hydroxy-5-(hydroxymethyl)-5-methyltetrahydrofuran-2-yl)pyrimidin-2(1H)-one]	> 1000 nM	–	–	–
O=c1nc(NO)ccn1[C@@H]1O[C@@](CO)(CCl)[C@@H](O)[C@H]1F [Compound 28, 1-((2R,3R,4R,5R)-5-(chloromethyl)-3-fluoro-4-hydroxy-5-(hydroxymethyl)tetrahydrofuran-2-yl)-4-(hydroxyamino)pyrimidin-2(1H)-one]	> 1000 nM	–	–	–
C#C[C@]1(CO)O[C@@H](n2ccc(N)nc2=O)[C@H](F)[C@@H]1O [Compound 32, 4-amino-1-((2R,3R,4R,5R)-5-ethynyl-3-fluoro-4-hydroxy-5-(hydroxymethyl)tetrahydrofuran-2-yl)pyrimidin-2(1H)-one]	> 1000 nM	–	–	–

Further lines, with some results ahead:

IC50 (THP1-Dual KO-TREX1 cells)	SMILES	IC50 [1]	IC50 (PC3 cells)	IC50 [2]
> 1000 nM	CC(C)C(=O)OC[C@@]1(CCl)O[C@@H](n2cc(F)c(N)nc2=O)C[C@@H]1OC(=O)C(C)C [Compound 58]	10000 to 50000 nM	> 100000 nM	> 100000 nM
> 1000 nM	CC[C@]1(COC(=O)C(C)C)O[C@@H](n2ccc(N)nc2=O)C[C@@H]1OC(=O)C(C)C [Compound 52, [(2R,3S,5R)-5-(4-amino-2-oxopyrimidin-1-yl)-2-ethyl-3-[(2-methylpropanoyl)oxy]oxolan-2-yl] methyl 2-methylpropanoate]	> 100000 nM	> 100000 nM	> 100000 nM
> 1000 nM	CC#C[C@]1(CO)O[C@@H](n2cnc3c(N)nc(F)nc32)C[C@@H]1O [Compound 1, (2R,3S,5R)-5-(6-amino-2-fluoro-9H-purin-9-yl)-2-(hydroxymethyl)-2-(prop-1-yn-1-yl)tetrahydrofuran-3-ol]	–	–	–
> 1000 nM	O=c1nc(NO)ccn1[C@H]1C[C@H](O)[C@](CO)(CCl)O1 [Compound 6, 1-((2R,4S,5R)-5-(chloromethyl)-4-hydroxy-5-(hydroxymethyl)tetrahydrofuran-2-yl)-4-(hydroxyamino)pyrimidin-2(1H)-one]	–	–	–
> 1000 nM	C#C[C@@H]1[C@H](n2ccc(N)nc2=O)O[C@@](CO)(CCl)[C@H]1O [Compound 17, 4-amino-1-((2R,3S,4S,5R)-5-(chloromethyl)-3-ethynyl-4-hydroxy-5-(hydroxymethyl)tetrahydrofuran-2-yl)pyrimidin-2(1H)-one]	–	–	–
> 1000 nM	Cc1cn([C@H]2C[C@H](F)[C@@](C)(CO)O2)c(=O)[nH]c1=O [Compound 180, 1-((2R,4S,5R)-4-fluoro-5-(hydroxymethyl)-5-methyltetrahydrofuran-2-yl)-5-methylpyrimidine-2,4(1H,3H)-dione]	> 100000 nM	> 100000 nM	> 100000 nM
> 1000 nM	[N-]=[N+]=N[C@]1(CO)O[C@@H](c2ccc3c(N)ncnn23)C[C@@H]1O [Compound 92, (2R,3S,5R)-5-(4-aminopyrrolo[2,1-f][1,2,4]triazin-7-yl)-2-azido-2-(hydroxymethyl) tetrahydrofuran-3-ol]	< 1000 nM	1000 to 10000 nM	1000 to 10000 nM
> 1000 nM	Nc1nc(=O)n([C@@H]2O[C@](/C=C\F)(CO)[C@@H](O)[C@@H]2F)cc1F [Compound 123, 4-amino-5-fluoro-1-((2R,3S,4R,5R)-3-fluoro-5-((Z)-2-fluorovinyl)-4-hydroxy-5-(hydroxymethyl)tetrahydrofuran-2-yl)pyrimidin-2(1H)-one]	> 100000 nM	> 100000 nM	> 100000 nM
> 1000 nM	Nc1nc(F)nc2c1ncn2[C@H]1C[C@H](O)[C@](CO)(CCl)O1 [Compound 8, (2R,3S,5R)-5-(6-amino-2-fluoro-9H-purin-9-yl)-2-(chloromethyl)-2-(hydroxymethyl)tetrahydrofuran-3-ol]	1000 to 10000 nM	1000 to 10000 nM	1000 to 10000 nM
> 1000 nM	Nc1nc(=O)n([C@@H]2O[C@@](CO)(CCl)[C@@H](O)[C@@H]2Cl)cc1F [Compound 137, 4-amino-1-[(2R,3S,4R,5R)-3-chloro-5-(chloromethyl)-4-hydroxy-5-(hydroxymethyl)oxolan-2-yl]-5-fluoropyrimidin-2-one]	> 100000 nM	> 100000 nM	> 100000 nM
